Measurements published in patent US11413324B2, “Compositions and methods for treating peripheral nerve disease, disorders, and injuries” (University of Virginia Patent Foundation, priority 2017, dated 2022).
Entries after “also recorded” stand apart in the source; their conditions may differ. Counter-ions that a name gives are not always drawn.

Experiments:
[1] = system: OPC migration through the MEP TZ; details: 10 μM, 24 to 72 hpf, 3 larvae imaged 55 to 72 hpf
Experimental: Embryos were anesthetized with 0.01% 3-aminobenzoic acid ester (Tricaine), immersed in 0.8% low-melting point agarose and mounted laterally in glass-bottomed 35 mm petri dishes (Electron Microscopy Sciences). After mounting, the petri dish was filled with egg water containing PTU and Tricaine. For some experiments, chemical compounds were also dissolved in the water. A 25× multi-immersion objective (NA=0.8), 40× oil objective (NA=1.4) and a 40× water objective (NA=1.1) mounted on a motorized Zeiss AxioObserver ZI microscope equipped with a Quorum WaveFX-XI spinning disc confocal system (Quorum Technologies Inc.) were used to capture images. Image processing was performed with MetaMorph and Photoshop to enhance brightness and contrast of images. The Fiji plugin MTrackJ was used to annotate time-lapse movies (Meijering et al., 2012).
In order to distinguish OPCs from motor neurons, we used embryos expressing olig2:dsred and sox10:eos, where sox10 regulatory elements drive expression of Eos in central and peripheral glia. […] We treated these embryos with 10 μM of CGS-15943 from 24 to 72 hpf and imaged 3 larvae (10 nerves total) from 55 to 72 hpf.

peripheral olig2^+ OPCs = test: Quantification of peripheral olig2+ OPCs at 3 dpf in drug-treated olig2:dsred larvae; assay type: in vivo, zebrafish; details: for number of peripheral olig2+ OPCs: 24 to 72 hpf; for peripherally migrated OPCs at 3 dpf after neurotransmitter receptor antagonist: compared to control
MEP glia = test: Presence of MEP glia (sox10+/olig2+ cells, wif1 in situ hybridization) on motor nerves; assay type: in vivo, zebrafish; details: for percentage of motor nerves with sox10+/olig2+ MEP glia at the MEP TZ: 36 to 72 hpf, vs DMSO, p=0.14
Experimental: Larvae were fixed in 4% PFA at 4° C. overnight and stored in 100% methanol at −20° C. and processed for in situ RNA hybridization. Plasmids were linearized with appropriate restriction enzymes and cRNA preparation was carried out using Roche DIG-labeling reagents and RNA polymerases (NEB). We used a previously published probe for wif1 (Smith et al., 2014). After in situ hybridization, embryos were embedded in 1.5% agarose/30% sucrose and frozen in 2-methylbutane chilled by immersion in liquid nitrogen. We collected 20 μm transverse sections on microscope slides using a cryostat microtome and covered with 75% glycerol. Images were obtained using a Zeiss AxioObserver inverted microscope using a 40× oil immersion objective. All images were imported into Adobe Photoshop. Adjustments were limited to levels, contrast, and cropping.
We therefore sought to determine whether antagonizing the A2a AR lead to ectopic OPC migration simply by perturbing MEP glial development. MEP glia can be identified by the co-expression of sox10:eos and olig2:dsred as well as expression of wnt inhibitory factor 1 (wif1) (Smith et al., 2014).

perineurial glia (PG) = details: 1.25 μm CGS-15943, 36 to 55 hpf
Eos^+ cells = test: Number of Eos+ cells (Schwann cells and MEP glia) per motor nerve in sox10:eos larvae; assay type: in vivo, zebrafish; details: 36 to 72 hpf, 72 hpf sox10:eos larvae, p=0.08
[2] = system: peripheral OPCs myelinating spinal motor axons; test: gpr126 mutant peripheral neuropathy model: peripheral OPCs and myelination of spinal motor nerves; assay type: in vivo, zebrafish
Text: This led us to hypothesize that OPCs could be pharmacologically recruited onto peripheral nerves in order to myelinate them. […] However, in these studies, OPCs populated the nerve in the context of genetic mutations resulting in the death or absence of both SCs and MEP glia. Therefore, we wanted to determine if it was possible to recruit OPCs to myelinate peripheral motor nerves in a model more closely resembling human peripheral neuropathies, in which SCs are present, but fail to myelinate. To do this, we used zebrafish harboring a mutation in g protein coupled receptor 126 (gpr126), a model of peripheral neuropathy in which SCs ensheath, but fail to myelinate peripheral nerves (Monk et al., 2009). OLs are present in normal numbers in these mutants, and central myelination is completely normal (Monk et al., 2009).
Therefore, we tested whether treatment with the A2a AR antagonist would result in peripherally-migrated OPCs ensheathing peripheral spinal motor nerves in these mutants. […] We then performed in vivo, time-lapse imaging on nkx2.2a:megfp;olig2:dsred;gpr126^−/− mutants in order to visualize whether these peripheral OPCs initiated myelination of peripheral nerves. The transgene nkx2.2a:megfp is expressed by pre-myelinating OPCs and enables clear visualization of membrane structures (Kucenas et al., 2008a). No other cells in the spinal cord or at the MEP TZ express both nkx2.2a and olig2, so use of these transgenes allowed us to unambiguously identify membrane sheaths coming from OPCs. […] Thin OPC membrane processes extended toward peripheral motor axons and formed membrane sheaths around them (FIG. 6D). The timing of sheath initiation on peripheral axons coincided with sheath initiation within the spinal cord, and some peripheral sheaths stabilized and elongated during the course of the time-lapse (FIG. 6D). This time-lapse data rules out the possibility that SCH-58261 treatment stimulates SCs to myelinate the nerve, since nkx2.2a^+ OPC processes can be clearly seen ensheathing nerve segments.
To examine whether these membrane sheaths were in fact myelin, we treated gpr126 mutants from 36 to 72 hpf with SCH-58261 or DMSO, fixed larvae at 4 dpf, and labeled with an antibody specific to myelin basic protein (MBP) using immunohistochemistry (Kucenas et al., 2009). In mutants treated with DMSO, we observed MBP only on a short segment of the proximal nerve root (FIG. 6E), which is consistent with our previous data showing that differentiated MEP glia express MBP in this region (Smith et al., 2014). […] As further confirmation that peripheral OPCs myelinate spinal motor nerve roots following treatment with SCH-58261, we imaged gpr126^−/− larvae expressing the transgenes mbp:egfp and olig2:dsred from 72 to 86 hpf (n=3) (FIG. 6F). In these time-lapses, we observed olig2^+ OPCs beginning to ensheath peripheral nerves with mbp^+ membrane tubes. Out of 12 nerves imaged, OPCs migrated out of the spinal cord onto 4 nerves, and an additional 3 nerves had OPCs already present at the beginning of the time-lapse. Multiple EGFP^+ membrane tubes extended from single OPCs and ensheathed most of the nerve root on all 7 nerves with OPCs present. These long membrane tubes were consistent with the pattern of MBP antibody labeling on the nerves of SCH-58261-treated mutants (FIG. 6E). Both the MBP antibody and mbp:egfp labeling were closely associated with an olig2^+ cell body, providing further evidence that peripherally-migrated OPCs and not SCs, initiate myelination in gpr126 mutants treated with SCH-58261 (FIGS. 6D&E). From these experiments, we conclude that OPCs can be recruited onto peripheral motor nerves and initiate myelination, even in the presence of MEP glia and SCs.

peripheral olig2^+ cells = test: Chemical screen of the LOPAC 1280 library: peripheral olig2+ cells scored in olig2:dsred larvae at 72 hpf; assay type: in vivo, zebrafish; details: 4 μM, 24 to 72 hpf, pilot experiment, positive control
larvae = test: Toxicity, death or morphological defects of treated or injected larvae; details: 40 μM, 36 to 72 hpf, n=1 survivor
[3] = dose responses of selective A1, A2b, A3 antagonists
[4] = gpr126−/− mbp:egfp;olig2:dsred, imaged 72 to 86 hpf, 12 nerves imaged

Structure (SMILES): Nc1nc2ccc(Cl)cc2c2nc(-c3ccco3)nn12 [CGS-15943, 9-Chloro-2-(2-furanyl)-[1,2,4]triazolo[1,5-c]quinazolin-5-amine]
- OPCs migrating through a single MEP TZ [1]: ≤ 2
- nerves on which OPC cell bodies migrated onto peripheral spinal motor nerves during imaging [1]: 6 out of 10
- nerves on which OPCs extend membrane processes through the MEP TZ [1]: 9 out of 10
- nerves with OPCs already present before 60 hpf [1]: 3 out of 10
- nerves with olig2+/sox10− motor neurons in the periphery [1]: 0 out of 10
- number of peripheral olig2+ OPCs (peripheral olig2^+ OPCs; doses of 1.25 and 20 μM, p<0.01): significant peripheral OPC migration
- wif1+ MEP glia (in situ hybridization) (MEP glia; 1.25 μM): observed wif1^+ MEP glia; also recorded: have wif1^+ MEP glia
- percentage of motor nerves with sox10+/olig2+ MEP glia at the MEP TZ (MEP glia; 1.25 μM): no differences
- PG extension from the spinal cord along the motor nerve (mean SEM) (perineurial glia (PG); 55 hpf larvae, 10 nerves per larva): 24.94±1.75 μm
- PG extension compared with DMSO-treated larvae (perineurial glia (PG); p=0.28): no difference in PG extension

Structure (SMILES): C[C@]12N[C@H](Cc3ccccc31)c1ccccc12 [MK-801, (5S,10R)-(+)-5-Methyl-10,11-dihydro-5H-dibenzo[a,d]cyclohepten-5,10-imine maleate]
- peripherally migrated OPCs at 3 dpf after neurotransmitter receptor antagonist (peripheral olig2^+ OPCs; 36 to 72 hpf, olig2:dsred): resulted in peripheral OPC migration

Structure (SMILES): NS(=O)(=O)c1cccc2c1c([N+](=O)[O-])cc1[nH]c(=O)c(=O)[nH]c12 [NBQX, 2,3-Dioxo-6-nitro-1,2,3,4-tetrahydrobenzo[f]quinoxaline-7-sulfonamide]
- peripherally migrated OPCs at 3 dpf after neurotransmitter receptor antagonist (peripheral olig2^+ OPCs; 36 to 72 hpf, olig2:dsred): significant numbers of peripherally-migrated OPCs

Structure (SMILES): CCCn1c(=O)c2[nH]c(-c3ccc(OCC(=O)Nc4ccc(C#N)cc4)cc3)nc2n(CCC)c1=O [MRS-1754]
- number of peripheral olig2+ OPCs (peripheral olig2^+ OPCs; [3]): did not observe peripheral OPCs

Structure (SMILES): Nc1nc2c(cnn2CCc2ccccc2)c2nc(-c3ccco3)nn12 [SCH-58261, 7-(2-phenylethyl)-5-amino-2-(2-furyl)-pyrazolo-[4,3-e]-1,2,4-triazolo[1,5-c]pyrimidine]
- number of peripheral olig2+ OPCs (peripheral olig2^+ OPCs; 10 μM, p<0.01 compared to DMSO): significant numbers of peripheral olig2^+ OPCs
- peripheral OPC migration by treatment window (peripheral olig2^+ OPCs; 10 μM, exposure beginning later than 54 hpf or ending earlier than 54 hpf, counted at 3 dpf): did not result in any peripheral OPC migration
- peripheral OPCs in WT or adora2aa−/− mutants (peripheral olig2^+ OPCs; SCH-58261 36 to 72 hpf, olig2:dsred, treatment p<0.0001, genotype p=0.53): observed peripheral OPCs in both genotypes
- percentage of motor nerves with sox10+/olig2+ MEP glia at the MEP TZ (MEP glia; 10 μM): no differences
- number of Eos+ cells per nerve compared with DMSO (Eos^+ cells): not significantly different
- olig2+ OPCs in the periphery of gpr126 mutants ([2]; 10 μM, 36 to 72 hpf, vs DMSO, p=0.009): significant number of olig2^+ OPCs in the periphery
- MBP antibody labeling on peripheral nerves ([2]; gpr126 mutants treated 36 to 72 hpf, fixed at 4 dpf): MBP labeling was present further distally along the nerve
- nerves with OPCs on which EGFP+ membrane tubes ensheathed most of the nerve root ([2]; gpr126−/− mbp:egfp;olig2:dsred, imaged 72 to 86 hpf): 7 nerves
- additional nerves with OPCs already present at the beginning of the time-lapse [2, 4]: 3 nerves
- nerves onto which OPCs migrated out of the spinal cord during time-lapse [2, 4]: 4 nerves
- ensheathment of peripheral motor axons by nkx2.2a+/olig2+ OPCs (time-lapse) ([2]; nkx2.2a:megfp;olig2:dsred;gpr126−/−, treated 36 to 72 hpf): initiate ensheathment of peripheral spinal motor axons

Structure (SMILES): COc1cc2ncnc(Nc3cccc(Cl)c3)c2cc1OC [AG1478]
- peripheral OPC migration (peripheral olig2^+ cells): robust peripheral OPC migration

Structure (SMILES): CCOC(=O)C1=C(C)NC(c2ccccc2)=C(C(=O)OCc2ccccc2)C1C#Cc1ccccc1 (stereo not drawn) [MRS-1191]
- number of peripheral olig2+ OPCs (peripheral olig2^+ OPCs; [3]): did not observe peripheral OPCs

Structure (SMILES): Cn1c(=O)c2[nH]c(C3CCCC3)nc2n(C)c1=O [CPT, 8-cyclopentyltheophylline]
- number of peripheral olig2+ OPCs (peripheral olig2^+ OPCs; [3]): did not observe peripheral OPCs

Structure (SMILES): CC1(C)[C@@H](OC(=O)CCC(=O)O)CC[C@]2(C)[C@H]3C(=O)C=C4[C@@H]5C[C@@](C)(C(=O)O)CC[C@]5(C)CC[C@@]4(C)[C@]3(C)CC[C@@H]12 [carbenoxolone]
- peripherally-migrated OPCs, treatment alone versus combined with TeNT mRNA (peripheral olig2^+ OPCs; 10 μM, 36 to 72 hpf, counted at 72 hpf, p=0.04): more peripherally-migrated OPCs
- peripherally-migrated OPCs at 3 dpf (peripheral olig2^+ OPCs; 36 to 72 hpf, p<0.001 for 10 μM and p<0.0001 for 20 μM): significant numbers of peripherally-migrated OPCs
- larvae that died at this dose (larvae): 9
